2 compounds from article PMC7140002, “Attenuation of Pseudomonas aeruginosa Quorum Sensing by Natural Products: Virtual Screening, Evaluation and Biomolecular Interactions” (International Journal of Molecular Sciences, 2020) can be followed below.

Experiment [1] deals with T1, LasR (Pseudomonas aeruginosa, UniProt P25084).
T1 construct: LasR-LBD
Put plainly: microscale thermophoresis (no fluorescence signal in thermal shift assay). It counts as binding.

For experiment [2], the target named is T1, LasR. Put plainly: microscale thermophoresis. It is filed as binding. Background: In MST a laser heats a spot of the sample, and binding alters the fluorescence response.

T1 sequence (P25084 1-173): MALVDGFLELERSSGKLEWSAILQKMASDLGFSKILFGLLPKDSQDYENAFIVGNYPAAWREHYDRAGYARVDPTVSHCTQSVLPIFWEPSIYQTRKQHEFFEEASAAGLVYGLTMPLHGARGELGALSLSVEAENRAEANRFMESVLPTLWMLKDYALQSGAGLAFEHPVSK

Usually Kd stands for a measure of binding affinity in units of concentration. On to `O=C(/C=C/c1ccc(O)c(O)c1)c1ccc(O)cc1O` [B, Butein], for which the Kd in experiment [1] was 3.48 ± 1.63 µM. In the case of `O=C1C=C(Br)/C(=C/Br)O1` [C30, (Z-)-4-Bromo-5-(bromomethylene)-2(5H)-furanone], binding in experiment [2] was characterised by a dissociation constant (Kd) of 20.4 ± 16 µM.
